The results in this text go back to publication PMC10069031 (European Journal of Medical Research, 2023).

One experiment relates to CCL2. In words: CCL2 ELISA in CT26 tumor tissue. The format is in vivo, mouse. The following applies: CT26 tumors. As to the method:
CT26 tumor cells were cultivated in RPMI 1640 with 2 mM L-glutamine (Gibco, Invitrogen GmbH) containing 10% fetal bovine serum (Gibco) at 37 °C and 5% CO2. Cell lines were maintained in culture for no longer than 6 months, and mycoplasma contamination was excluded by enzymatic test (MycoAlert, Lonza) prior to in vivo application. Tumor cells (2 × 10^6) were transplanted subcutaneously into 6- to 8-week-old female BALB/c mice. Control mice were subjected to sham surgery without tumor cell transplantation. Blood and tumor samples were collected from untreated control and tumor-bearing mice on days 4 and 8 (n = 3 mice/group). […] For interim analysis, blood and tumor tissue were collected from each group (n = 3 mice/group) after 7 days of treatment. […] Tumor diameter was measured by caliper and body weight was determined at least twice weekly. Tumor volume was calculated using the formula 0.5 × a × b^2, where a and b are the long and short diameters of the tumor, respectively.
For tissue collection, mice were killed at predetermined time points. […] Tumors were removed, and their weights determined, then divided into three pieces, one of which was snap-frozen, one formalin fixed and paraffin embedded, and one weighed and used for FC analyses. […]
(An ELISA detects its analyte on a solid surface through an enzyme-linked reagent.)

For the next experiment, the system named is F4/80^hi population. In words: F4/80^hi cells in MC38 tumors. The format is in vivo, mouse. Conditions: even at 5 mg/kg/day. Here is the method:
For tumors, single-cell suspensions were prepared from the fresh tumor pieces using a mouse Tumor Dissociation Kit (Miltenyi Biotec). The final cell pellets were resuspended in 1 mL FC buffer (PBS with 2 mM EDTA, 0.5% bovine serum albumin). Then, 100 µL of the tumor single-cell suspensions and the EDTA blood samples were stained by addition of the antibody cocktail and incubated for 10 min at 4 °C according to the manufacturer’s instructions. After antibody incubation, blood samples were incubated with 2–3 mL lysis buffer (0.17 M NH4Cl, 10 mM KHCO3, 0.1 mM EDTA) for 10–20 min at RT to lyse and remove red blood cells. Subsequently, samples were centrifuged at 300 g for 5 min at 4 °C and cells were washed with 2–3 mL FC buffer. Tumor samples were washed immediately after antibody incubation with 2–3 mL FC buffer without the lysis procedure and centrifuged at 300 g for 5 min at 4 °C. […] Next, 50 µL of blood and 70 µL of tumor cell suspensions were analyzed by FC using MACSQuant Analyzer 10 and MACSQuant Analyzer 16 (Miltenyi Biotec). FC data were analyzed with the FlowLogic software (Inivai Technologies distributed through Miltenyi Biotec; version 7.2.1) and gated as shown in Fig. S1 (see Additional file 2), whereby up to seven subpopulations were identified in the CD45^+ fraction using antibodies against F4/80 and CD115. […]

Turning to `CNC(=O)c1cc(Oc2ccc(NC(=O)Nc3ccc(Cl)c(C(F)(F)F)c3)c(F)c2)ccn1` [REG, Regorafenib], the “CCL2 concentrations in tumor lysates vs vehicle controls” value with CCL2 is “a trend toward higher levels”. The “reduction of the F4/80^hi population vs vehicle” value in the experiment on F4/80^hi population is listed as “more than twofold”.
